The TGI is the concentration at which net growth stops. Read a low TGI as greater sensitivity of the cells.

Molecules are shown by their SMILES.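 The compound was tested at five concentrations on cells cultured in 96-well plates, with a 48-hour exposure period. The concentration for full growth arrest is given as TGI.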

What all share (test): DTP human tumour cell line panel, 48 h
For assay [1], the system named is SR leukemia.
Assay [2] has as its system SF-268 CNS.
For assay [3], the system named is MDA-MB-435.
For assay [4], the system named is SK-MEL-5 melanoma.
Assay [5] has as its system HS 578T breast.
Assay [6] concerns 786-0 renal.
For assay [7], the system named is U251 CNS.
Assay [8] concerns A549 NSCLC.
The test system of assay [9] is UACC-257 melanoma.
Assay [10] deals with HOP-92 NSCLC.
Assay [11] has as its system M14 melanoma.
The subject of assay [12] is BT-549 breast.
Assay [13] has as its system HCT-15 colon.
Assay [14] concerns LOX IMVI melanoma.
Assay [15] relates to OVCAR-4 ovarian.
For assay [16], the system named is HOP-62 NSCLC.
Assay [17] deals with SNB-75 CNS.
Assay [18] concerns CAKI-1 renal.
Assay [19] deals with A498 renal.

Turning to `COC1=CC(=O)c2c(cc(COP(=O)(OCC3OC(n4cc(F)c(=O)[nH]c4=O)CC3O)N(C)CCCCCl)n2C)C1=O` (stereo unspecified), the TGI was over 92.7 µM in assay [1]; 16.1 µM in [2]; 5 µM in [3]; 1.34 µM in assay [4]; 2.64 µM in assay [5]; over 69.2 µM in assay [6]. Moreover, the TGI in assay [7] is 37.7 µM; in assay [8], 6.27 µM; in [9], over 47.5 µM; in [10] it was 12.3 µM; in assay [11], 12.8 µM; in assay [12], over 100 µM. Moreover, the TGI in assay [13] was over 86.4 µM; in assay [14], 14.7 µM; in assay [15], over 34.8 µM; in assay [16], 26.8 µM.
As for `COC(=O)C(C(=O)C(=O)Nc1ccccc1C#N)c1nc2ccc([N+](=O)[O-])cc2[nH]c1=O` (stereo unspecified), the TGI in assay [1], in [2], in assay [17], in assay [3], in [4] and in assay [5] was over 100 µM each time. In addition, the TGI in assay [6], in assay [18], in assay [7], in assay [8], in assay [9] and in assay [10] was over 100 µM in each case. Moreover, the TGI in [11], in [12], in [13], in [14], in assay [15] and in assay [16] was over 100 µM in each case.
For `N#CCOc1ccc(/C=C/C(=O)c2ccc(Cl)cc2)cc1`, the TGI in assay [1] is over 100 µM; in assay [2] it was over 100 µM; in assay [17] it was 37.2 µM; in assay [3] it was over 100 µM; in assay [4], 43.6 µM; in assay [5] it was 50.9 µM. Also, the TGI in assay [6] is 48.1 µM; in assay [7], 99.3 µM; in assay [8], over 100 µM; in assay [9] it was over 100 µM; in assay [10], 81.4 µM; in assay [11] it was over 100 µM. The TGI in assay [12] is 11.7 µM; in assay [13], over 100 µM; in assay [14], 37.5 µM; in assay [15], over 100 µM; in assay [19] it was 49.5 µM; in assay [16], 57.5 µM.
Consider `Nn1c(CCCCCCCCc2nnc(COc3ccccc3)n2N)nnc1COc1ccccc1`, for which the TGI in assay [2], in [17], in [3], in assay [4], in assay [5] and in [6] was over 100 µM each time. The TGI in assay [18], in [7], in assay [8], in [9], in assay [10] and in assay [11] was over 100 µM in each case. Besides, the TGI in [12], in [13], in assay [14], in assay [15], in assay [19] and in assay [16] was over 100 µM each time.
For `CCOC(=O)C(=[N+]=[N-])C(=O)CN1C(=O)C2CC(C)=C(C)CC2C1O` (stereo unspecified), the TGI in assay [1], in assay [2], in assay [17], in assay [3], in [4] and in [5] was over 100 µM throughout. Also, the TGI in assay [6], in assay [7], in assay [8], in [9], in assay [11] and in assay [12] was over 100 µM each time. In addition, the TGI in assay [14] and in assay [16] was over 100 µM each time.
Take `O=C1C(Cl)C2(CC(/C=C/c3ccccc3O)=NN2c2cccc(S(=O)(=O)O)c2)N1c1nc2ccccc2s1` (stereo unspecified): the TGI in assay [1] is 58 µM; in assay [2] it was 43.4 µM; in [17], over 100 µM; in assay [3] it was 31.1 µM; in assay [4], 26.1 µM; in [5] it was over 100 µM. The TGI was 30 µM in assay [6]; 46.9 µM in assay [7]; 82.5 µM in [8]; 42 µM in assay [9]; 37 µM in assay [10]; 37.8 µM in assay [11]. The TGI in [12] amounted to 34.9 µM; in assay [13], 44.6 µM; in assay [14], 24.7 µM; in assay [15], 27.4 µM; in assay [19], 50.5 µM.
With `O=C(O)CC1NC(/C(=C/c2ccccc2O)NC(=O)c2ccccc2)OC1=O` (stereo unspecified), the TGI in [2] was over 45.1 µM; in assay [17] it was over 63.6 µM; in assay [3], over 100 µM; in assay [4], over 100 µM; in assay [5] it was over 100 µM; in assay [6], over 100 µM. In addition, the TGI is over 100 µM in assay [18]; over 80.8 µM in assay [7]; over 100 µM in assay [8]; over 100 µM in assay [9]; over 100 µM in assay [10]; over 100 µM in assay [11]. For the same compound, the TGI in [12] is 52 µM; in [13], over 100 µM; in assay [14], over 100 µM; in [15] it was over 38.2 µM; in assay [19], over 100 µM; in [16], 29.5 µM.
Consider `Cc1cc(C)nc(SCC(=O)OC2CC(C)CCC2C(C)C)n1` (stereo unspecified), for which the TGI in [2] was over 100 µM; in assay [17], 65.8 µM; in assay [3], 58.3 µM; in assay [4], 29 µM; in [5], over 100 µM; in [6], 42.6 µM. The TGI in assay [18] was determined as 48.6 µM; in assay [7], 53.8 µM; in assay [8] it was 63.4 µM; in assay [9] it was 41.7 µM; in assay [10], 67.1 µM; in [11] it was 37 µM. In addition, the TGI was 79.9 µM in assay [12]; 43.8 µM in assay [13]; 37.5 µM in [14]; 50.6 µM in assay [15]; 47.2 µM in assay [19]; 27.2 µM in assay [16].
As to `COc1cccc(CCNc2c(C#N)c3nc4ccccc4n3c3ccccc23)c1`, the TGI was over 100 µM in assay [1]; over 100 µM in assay [2]; over 58 µM in assay [17]; 0.872 µM in assay [4]; over 27.2 µM in assay [5]; over 75.9 µM in assay [6]. The TGI in [18], in assay [7], in assay [8], in assay [9], in [10] and in [11] was over 100 µM each time. Besides, the TGI in assay [12] is over 100 µM; in assay [13] it was over 100 µM; in [14] it was over 100 µM; in assay [15] it was over 100 µM; in assay [19], over 26.2 µM; in assay [16], over 100 µM.
In the case of `Cc1ccc(S(=O)(=O)N2c3ccccc3[C@H]3CCC=C[C@H]32)cc1`, the TGI in [1] was 65.2 µM; in assay [2], over 76.1 µM; in assay [17], 42.5 µM; in assay [4], over 97.5 µM; in [5], 86.3 µM; in [6], over 100 µM. For the same compound, the TGI in assay [18] was over 100 µM; in assay [7], 27.2 µM; in assay [8], over 100 µM; in assay [9], over 95.4 µM; in [10], 35.4 µM; in assay [11] it was 43.3 µM. The TGI in assay [12] is over 100 µM; in assay [13], over 69.1 µM; in assay [14], 56.5 µM; in assay [15] it was over 100 µM; in assay [19], 46.2 µM; in assay [16], 67.4 µM.
For the compound `CSc1cc(Br)ccc1-n1c(C(=O)c2ccccc2)c(SC)n(-c2ccccc2)c1=O`, the TGI in [1], in assay [2], in assay [17], in [4], in assay [5] and in assay [6] was over 100 µM throughout. For the same compound, the TGI in assay [18], in assay [7], in [8], in [9], in assay [10] and in assay [11] was over 100 µM each time. The TGI in [12], in [13], in assay [14], in [15] and in assay [16] was over 100 µM throughout.
Consider `CN(C)c1ccc(-c2c(C#N)c(O)n(NS(=O)(=O)c3ccccc3)c(=O)c2C#N)cc1`, for which the TGI in [2], in assay [17], in assay [3], in assay [4], in assay [5] and in assay [6] was over 100 µM in each case. For the same compound, the TGI in assay [18], in assay [7], in assay [8], in [9], in assay [10] and in assay [11] was over 100 µM in each case. The TGI in [12], in [13], in [14], in [15], in [19] and in assay [16] was over 100 µM each time.
Turning to `Cc1ccc(N=C2S/C(=C3/CCC=C3N3CCOCC3)N(c3ccc(Cl)cc3)C2=Nc2ccc(C)cc2)cc1`, the TGI in assay [1], in [17], in assay [4], in assay [5], in [6] and in [7] was over 100 µM each time. Besides, the TGI in assay [8], in assay [9], in assay [10], in [11], in assay [12] and in assay [13] was over 100 µM in each case. The TGI in [19] and in assay [16] was over 100 µM throughout.
In the case of `COc1ccc(/C=C/C(=N/NC(=O)N/N=C(/C=C/c2ccc(OC)cc2)C(C)(C)CN2CCCCC2)C(C)(C)CN2CCCCC2)cc1`, the TGI stood at 0.679 µM in assay [1]; 2.89 µM in [17]; 3.01 µM in [4]; 4.28 µM in [5]; 3.15 µM in [6]; 4.33 µM in [18]. Moreover, the total growth inhibition concentration (TGI) in assay [7] was 3.31 µM; in [8], 3.49 µM; in assay [9] it was 3.31 µM; in assay [10] it was 3.08 µM; in assay [11] it was 3.12 µM; in [12] it was 3.58 µM. Besides, the TGI was 7.06 µM in assay [13]; 2.82 µM in assay [14]; 3.96 µM in assay [15]; 3.73 µM in assay [19]; 3.93 µM in assay [16].
Regarding `CCCCc1ccc(-n2sc3ncc([N+](=O)[O-])cc3c2=O)cc1`, the TGI in assay [1] was 45.9 µM; in assay [2] it was 37.1 µM; in [17] it was 57.2 µM; in [3], 52.3 µM; in assay [4], 27.7 µM; in assay [5], 30.8 µM. The total growth inhibition concentration (TGI) was found to be 28.2 µM in assay [6]; 26.2 µM in assay [18]; 29.1 µM in [7]; 27.3 µM in assay [8]; 50.9 µM in assay [9]; 43.7 µM in assay [11]. Moreover, the concentration for total growth inhibition (TGI) in assay [12] stood at 33.9 µM; in assay [13] it was 28.4 µM; in assay [14], 26.1 µM; in assay [15], 35.2 µM; in assay [16] it was 36.7 µM.
With `O=C(COc1ccc(OCC(=O)NNC2=NC(c3cc(F)c(Cl)cc3Cl)CS2)c(Cl)c1)NNC1=NC(c2cc(F)c(Cl)cc2Cl)CS1` (stereo unspecified), the TGI in [1] was over 100 µM; in [3] it was 44.6 µM; in assay [5], 48.7 µM; in assay [6] it was over 100 µM; in assay [7], 28.5 µM; in assay [8], 28.6 µM. The TGI in [9] is over 100 µM; in assay [10], over 100 µM; in assay [11], over 100 µM; in assay [12], 66.1 µM; in [13] it was 36 µM; in assay [14], 5.15 µM. Further, the TGI in assay [15] is 40.4 µM; in [19] it was 56.2 µM; in [16], over 100 µM.
